Results as given in patent US6492398B1, “Thiazoloindolinone compounds” (SmithKline Beechman Corporation, priority 1999, dated 2002).
In brackets after ≈: the same amount, converted by molar mass.

What was measured:
[1] = Solubilities in solvent media (PEG 400, transcutol, methanol); format: physicochemical
Source text: The solubilities (in milligrams per milliliter, mg/mL) of the Form A compound in polyethylene glycol 400, transcutol and methanol solvents are as follows:
The solubilities (in milligrams per milliliter, mg/mL) of Form B in polyethylene glycol 400, transcutol and methanol solvents are as follows: […]

[2] = Crystallization determinations, solubility comments (Table IV); format: physicochemical; conditions: for Solubility (Comments): evaporation at 25° C.
Protocol: Recrystallization procedures for the respective forms were carried out in each case with the compound being dissolved in the selected solvent and stored at ambient temperature (e.g., 25° C.) until the solvent evaporated. The solid residue was then analyzed by x-ray diffraction.
In the respective anti-solvent determinations, the compound was dissolved in a selected solvent at 25° C., and water or alcohol was added to precipitate a solid. The solid was analyzed by x-ray diffraction.
The compound 4-(((7-oxo-6,7-dihydro-8H-[1,3]thiazolo[5,4-e]indol-8-ylidene)-methyl)amino)-N-(4-pyridinylmethyl) benzenesulfonamide was subjected to crystallization determinations using various solvents and methods of crystallization as described in Table IV below.
In the case of solvent that are relatively non-volatile (DMSO, DMF), complete evaporation was difficult to achieve at […] The presence of solvent was evident as an amorphous hump in the PXRD pattern. Cooling at 5° C. was less successful than the other crystallization approaches as a consequence of the low solubility of 4-(((7 oxo-6,7-dihydro-8H [1,3]thiazolo[5,4-e]indol-8-ylidene)methyl)amino)-N-(4-pyridinylmethyl) benzenesulfonamide under such conditions.

Row | Solubility ([1]; polyethylene glycol 400, organic solvent or mixture, solvent PEG 400 (polyethylene glycol 400), read-out: Solubility) [µg/mL] | Solubility ([1]; solvent methanol) [µg/mL] | Solubility ([1]; transcutol, organic solvent or mixture, solvent transcutol, read-out: Solubility) [µg/mL] | Solubility ([2]; organic solvent or mixture, solvent ethyl acetate, cooling at 5° C.) [µg/mL] | Solubility (Comments) ([2]; solvent pyridine) | Solubility ([1]; solvent PEG 400 (polyethylene glycol 400)) [µg/mL] | Solubility ([1]; solvent transcutol) [µg/mL] | Solubility (Comments) ([2]; solvent ethyl acetate) | SMILES
1 | 4760 (≈ 10.3 mM) | 300 (≈ 0.647 mM) | 3150 (≈ 6.8 mM) | < 60 | low | – | – | – | O=C1Nc2ccc3ncsc3c2C1=CNc1ccc(S(=O)(=O)NCc2ccncc2)cc1 [Form A, 4-{[(7-oxo-6,7-dihydro8H-[1,3]thiazolo[5,4-e]indol-8-ylidene)methyl]amino}-N-(4-pyridinylmethyl)-benzenesulfonamide]
2 | – | 80 (≈ 0.173 mM) | – | – | – | 4500 (≈ 9.71 mM) | 2770 (≈ 5.98 mM) | low | O=C1Nc2ccc3ncsc3c2C1=CNc1ccc(S(=O)(=O)NCc2ccncc2)cc1 [Form B, 4-{[(7-oxo-6,7-dihydro-8H-[1,3]thiazolo[5,4-e]indol-8-ylidene)methyl]amino}-N-(4-pyridinylmethyl)-benzenesulfonamide]
